Measured values: patent US20110060056A1, “Inhibition of the Survival of Gastric Cancer by Cyclohexenone Compounds from Antrodia Camphorata” (GOLDEN BIOTECHNOLOGY CORPORATION, priority 2009, published 2011)

Tested on: gastric cancer cell line TSGH-9201
Experiment: In vitro survival assay (MTT) for anti-gastric cancer effects
Type: cell-based
Details: Homo sapiens, TSGH-9201 cells, 48 hours treatment, read-out: IC50 (half inhibition concentration), survival of gastric cancer cells
Procedure: Inhibiting effects of gastric cancer cells by cyclohexenone compounds of Antrodia camphorata from example 1 were assessed according to the anticancer-drug screening model of National Cancer Institute (NCI). The compound 4-hydroxy-2,3-dimethoxy-6-methyl-5-(3,7,11-trimethyl-dodeca-2,6,10-trienyl)-cyclohex-2-enone from example 1 was added into the culture media of gastric cancer cell line TSGH-9201 to determine the survival rates. Survival of cell was analyzed using MTT assay. TSGH-9201 cell line was a human gastric carcinoma cell line.
MTT assay is commonly used to analyze cell proliferation, survival rate of viable cells and cytotoxicity. MTT (3[4,5-dimethylthiazol-2-yl]-2,5-diphenyltetrazolium bromide) is a yellow dye which can be converted to water-insoluble purple formazan on the reductive cleavage of its tetrazolium ring by the succinate tetrazolium reductase in mitochondria of cells. The amount of formazan produced is used to detect the number of viable cells and calculate the survival rates.
The TSGH-9201 cells were cultivated in DMEM medium supplemented with 10% fetal bovine serum, 100 U/ml of Penicillin and 100 μg/ml of Streptomycin at 37° C., 5% CO2 for 24 hours. Proliferated cells were washed once with PBS, treated with 1× trypsin-EDTA, and centrifuged at 1200 rpm for 5 min. […] The absorbances were measured at 570 nm with an ELISA Reader to determine the survival rates.

COC1=C(OC)C(O)C(C/C=C(\C)CC/C=C(\C)CCC=C(C)C)C(C)C1=O (stereo not shown) [formula 2, 4-hydroxy-2,3-dimethoxy-6-methyl-5-(3,7,11-trimethyl-dodeca-2,6,10-trienyl)-cyclohex-2-enone]
IC50: 1.32 µg/mL
